Literature values in patent publication US20250339408A1, “TREATMENT AND PREVENTION OF BASAL CELL CARCINOMA WITH TOPICAL COMPOSITION COMPRISING PATIDEGIB” (Sol-Gel Technologies Ltd., priority 2023, published 2025).

Test system: patients with Gorlin Syndrome
Conditions: oral drugs; with and without PTCH1 mutation; cited from earlier work

Q: Which “Effect in patients with Gorlin Syndrome (in words)” value does the source give for CS(=O)(=O)c1ccc(C(=O)Nc2ccc(Cl)c(-c3ccccn3)c2)c(Cl)c1 [Vismodegib] here?
A: The value was “known to effect patients with Gorlin Syndrome, both with and without PTCH1 mutation”.

Q: Which “Effect in patients with Gorlin Syndrome (in words)” value does the source give for Cc1c(C(=O)Nc2ccc(N3C[C@@H](C)O[C@@H](C)C3)nc2)cccc1-c1ccc(OC(F)(F)F)cc1 [Sonidegib] here?
A: The value was “known to effect patients with Gorlin Syndrome, both with and without PTCH1 mutation”.
